Laboratory results: patent US20260200920A1, “SUBSTITUTED AMINOPYRIDINE COMPOUNDS FOR USE AS AKT1 INHIBITORS” (Atavistik Bio, Inc., priority 2023, published 2026)

Tests used:
[1] = target: T1, human recombinant kinase full-length AKT1 E17K (Homo sapiens, UniProt P31749, E17K); test: AKT1 E17K kinase assay (TR-FRET, Lance); format: biochemical; conditions: 0.6 nM AKT1 E17K, 50 nM Ulight-CREBtide, either 50 μM ATP or 2 mM ATP, 60 min at RT
T1 construct: Purified human recombinant kinase full-length AKT1 E17K was expressed in insect cells; made in house; host or cells: insect cells
Method in brief: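 IC50 came from a 10-point, 4-parameter fit of the 665/620 TR-FRET ratio read with Eu-anti-phospho-CREB (Ser133). Reaction at RT for 60 min after 15 min compound preincubation, using 0.6 nM PDPK1-activated full-length AKT1 E17K (insect-cell), 50 nM Ulight-CREBtide, ATP at 50 μM or 2 mM, HEPES pH 7.5, 1% DMSO.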

[2] = target: T2, human recombinant kinase full-length wildtype AKT1 (Homo sapiens, UniProt P31749); test: AKT1 kinase assay (wildtype, TR-FRET, Lance); format: biochemical; conditions: 0.6 nM wildtype AKT1, 50 nM Ulight-CREBtide, either 50 μM ATP or 2 mM ATP, 60 min at RT
T2 construct: Purified human recombinant kinase full-length wildtype AKT1 was expressed in insect cells; made in house; host or cells: insect cells
Method in brief: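 TR-FRET 665/620 ratio quantified phospho-CREBtide formed by PDPK1-activated full-length human AKT1 (0.6 nM, insect-cell-derived) over 60 min at RT with 50 nM ULight-CREBtide and either 50 μM or 2 mM ATP. Compounds were preincubated 15 min with enzyme; IC50 came from 4-parameter fits of 10-point duplicates.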

T1 sequence (P31749 whole entry E17K): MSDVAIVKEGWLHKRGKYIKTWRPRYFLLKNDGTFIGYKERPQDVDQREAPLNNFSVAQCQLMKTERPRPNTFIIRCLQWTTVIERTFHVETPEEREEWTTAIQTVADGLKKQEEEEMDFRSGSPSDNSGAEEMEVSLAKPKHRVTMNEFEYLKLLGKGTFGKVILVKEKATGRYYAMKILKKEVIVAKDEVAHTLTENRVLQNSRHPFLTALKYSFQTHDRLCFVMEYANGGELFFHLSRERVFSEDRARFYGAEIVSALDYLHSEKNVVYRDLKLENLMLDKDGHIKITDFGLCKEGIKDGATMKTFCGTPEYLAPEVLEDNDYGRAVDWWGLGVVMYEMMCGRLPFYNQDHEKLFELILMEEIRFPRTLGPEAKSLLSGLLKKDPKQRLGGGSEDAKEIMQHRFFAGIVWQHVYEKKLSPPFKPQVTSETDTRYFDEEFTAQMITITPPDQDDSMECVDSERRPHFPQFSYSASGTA
T2 sequence (P31749 whole entry): as the sequence (P31749 whole entry E17K) above, with K17E counted along it

Structure (SMILES)	IC50 [1] [µM]	IC50 [2] [µM]
Nc1ncccc1-c1nc2ccc(-c3ccccc3)nc2n1-c1ccc(CN2CC3(CC(C(=O)O)C3)C2)cc1 [Compound I-93, 2-(4-(2-(2-aminopyridin-3-yl)-5-phenyl-3H-imidazo[4,5-b]pyridin-3-yl)benzyl)-2-azaspiro[3.3]heptane-6-carboxylic acid]	0.5 to 2	< 20
Nc1ncccc1-c1nc2ccc(-c3ccccc3)nc2n1-c1ccc(CN2CCC(CC(=O)O)C2)cc1 (stereo not drawn) [Compound I-94, 2-(1-(4-(2-(2-aminopyridin-3-yl)-5-phenyl-3H-imidazo[4,5-b]pyridin-3-yl)benzyl)pyrrolidin-3-yl)acetic acid]	< 0.5	< 20
CN(Cc1ccc(-n2c(-c3cccnc3N)nc3ccc(-c4ccccc4)nc32)cc1)[C@H]1CC[C@@H](C(=O)O)CC1 [Compound I-95, (1s,4s)-4-((4-(2-(2-aminopyridin-3-yl)-5-phenyl-3H-imidazo[4,5-b]pyridin-3-yl)benzyl)(methyl)amino)cyclohexane-1-carboxylic acid]	< 0.5	< 20
CN(Cc1ccc(-n2c(-c3cccnc3N)nc3ccc(-c4ccccc4)nc32)cc1)[C@H]1CC[C@H](C(=O)O)CC1 [Compound I-96, (1r,4r)-4-((4-(2-(2-aminopyridin-3-yl)-5-phenyl-3H-imidazo[4,5-b]pyridin-3-yl)benzyl)(methyl)amino)cyclohexane-1-carboxylic acid]	< 0.5	< 20
Nc1ncccc1-c1nc2ccc(-c3ccccc3)nc2n1-c1ccc(CN2CCC(CC(=O)O)CC2)cc1 [Compound I-97, 2-(1-(4-(2-(2-aminopyridin-3-yl)-5-phenyl-3H-imidazo[4,5-b]pyridin-3-yl)benzyl)piperidin-4-yl)acetic acid]	0.5 to 2	< 20
CC(C(=O)O)C1CCN(Cc2ccc(-n3c(-c4cccnc4N)nc4ccc(-c5ccccc5)nc43)cc2)CC1 (stereo not drawn) [Compound I-98, 2-(1-(4-(2-(2-aminopyridin-3-yl)-5-phenyl-3H-imidazo[4,5-b]pyridin-3-yl)benzyl)piperidin-4-yl)propanoic acid]	≥ 2	< 20
CC1(C)CC(C(=O)O)CCN1Cc1ccc(-n2c(-c3cccnc3N)nc3ccc(-c4ccccc4)nc32)cc1 (stereo not drawn) [Compound I-99, 1-(4-(2-(2-aminopyridin-3-yl)-5-phenyl-3H-imidazo[4,5-b]pyridin-3-yl)benzyl)-2,2-dimethylpiperidine-4-carboxylic acid]	≥ 2	< 20
Cc1cc(NC(=O)C2CC3(CC(C(=O)O)C3)C2)ccc1-n1c(-c2cccnc2N)nc2ccc(-c3ccccc3)nc21 (stereo not drawn) [Compound I-100, 6-((4-(2-(2-aminopyridin-3-yl)-5-phenyl-3H-imidazo[4,5-b]pyridin-3-yl)-3-methylphenyl)carbamoyl)spiro[3.3]heptane-2-carboxylic acid]	0.5 to 2	< 20
Cc1c(-n2c(-c3cccnc3N)nc3ccc(-c4ccccc4)nc32)ccc(NC(=O)C2CC3(CC(C(=O)O)C3)C2)c1F (stereo not drawn) [Compound I-101, 6-((4-(2-(2-aminopyridin-3-yl)-5-phenyl-3H-imidazo[4,5-b]pyridin-3-yl)-2-fluoro-3-methylphenyl)carbamoyl)spiro[3.3]heptane-2-carboxylic acid]	≥ 2	< 20
Cc1cc(NC(=O)[C@H]2CC[C@H](C(=O)O)CC2)ccc1-n1c(-c2cccnc2N)nc2ccc(-c3ccccc3)nc21 [Compound I-102, (1r,4r)-4-((4-(2-(2-aminopyridin-3-yl)-5-phenyl-3H-imidazo[4,5-b]pyridin-3-yl)-3-methylphenyl)carbamoyl)cyclohexane-1-carboxylic acid]	0.5 to 2	< 20
Cc1c(-n2c(-c3cccnc3N)nc3ccc(-c4ccccc4)nc32)ccc(NC(=O)[C@H]2CC[C@H](C(=O)O)CC2)c1F [Compound I-103, (1r,4r)-4-((4-(2-(2-aminopyridin-3-yl)-5-phenyl-3H-imidazo[4,5-b]pyridin-3-yl)-2-fluoro-3-methylphenyl)carbamoyl)cyclohexane-1-carboxylic acid]	≥ 2	< 20
CC(C(=O)O)C1CCN(Cc2ccc(-n3c(-c4cccnc4N)nc4ccc(-c5ccccc5)nc43)cc2)C1 (stereo not drawn) [Compound I-104, 2-[1-[[4-[2-(2-amino-3-pyridyl)-5-phenyl-imidazo[4,5-b]pyridin-3-yl]phenyl]methyl]pyrrolidin-3-yl]propanoic acid]	0.5 to 2	< 20
CC(C)(C(=O)O)C1CCN(Cc2ccc(-n3c(-c4cccnc4N)nc4ccc(-c5ccccc5)nc43)cc2)C1 (stereo not drawn) [Compound I-105, 2-[1-[[4-[2-(2-amino-3-pyridyl)-5-phenyl-imidazo[4,5-b]pyridin-3-yl]phenyl]methyl]pyrrolidin-3-yl]-2-methyl-propanoic acid]	0.5 to 2	< 20
Nc1ncccc1-c1nc2ccc(-c3ccccc3)nc2n1-c1ccc(NC(=O)N2CCC(C(=O)O)CC2)c(F)c1 [Compound I-106, 1-[[4-[2-(2-amino-3-pyridyl)-5-phenyl-imidazo[4,5-b]pyridin-3-yl]-2-fluoro-phenyl]carbamoyl]piperidine-4-carboxylic acid]	0.5 to 2	< 20

The next lines start with the values.

IC50 [1] [µM]	IC50 [2] [µM]	Structure (SMILES)
≥ 2	< 20	Nc1ncccc1-c1nc2ccc(-c3ccccc3)nc2n1-c1ccc(N2CC3(CC(C(=O)O)C3)C2)nc1 [Compound I-107, 2-(5-(2-(2-aminopyridin-3-yl)-5-phenyl-3H-imidazo[4,5-b]pyridin-3-yl)pyridin-2-yl)-2-azaspiro[3.3]heptane-6-carboxylic acid]
0.5 to 2	< 20	Cc1nc(NC(=O)C2CCC(C(=O)O)CC2)ccc1-n1c(-c2cccnc2N)nc2ccc(-c3ccccc3)nc21 (stereo not drawn) [Compound I-108, 4-((5-(2-(2-aminopyridin-3-yl)-5-phenyl-3H-imidazo[4,5-b]pyridin-3-yl)-6-methylpyridin-2-yl)carbamoyl)cyclohexane-1-carboxylic acid]
0.5 to 2	< 20	Cc1nc(NC2CCC(C(=O)O)CC2)ccc1-n1c(-c2cccnc2N)nc2ccc(-c3ccccc3)nc21 (stereo not drawn) [Compound I-109, 4-((5-(2-(2-aminopyridin-3-yl)-5-phenyl-3H-imidazo[4,5-b]pyridin-3-yl)-6-methylpyridin-2-yl)amino)cyclohexane-1-carboxylic acid]
≥ 2	< 20	Nc1ncccc1-c1nc2ccc(-c3ccccc3)cc2n1-c1ccc(NC(=O)C2CCC(C(=O)O)C2)nc1 (stereo not drawn) [Compound I-110, 3-((5-(2-(2-aminopyridin-3-yl)-6-phenyl-1H-benzo[d]imidazol-1-yl)pyridin-2-yl)carbamoyl)cyclopentane-1-carboxylic acid]
0.5 to 2	< 20	Nc1ncccc1-c1nc2ccc(-c3ccccc3)cc2n1-c1ccc(NC(=O)C2CCCC(C(=O)O)C2)nc1 (stereo not drawn) [Compound I-111, 3-((5-(2-(2-aminopyridin-3-yl)-6-phenyl-1H-benzo[d]imidazol-1-yl)pyridin-2-yl)carbamoyl)cyclohexane-1-carboxylic acid]
< 0.5	< 20	Nc1ncccc1-c1nc2ccc(-c3ccccc3)nc2n1-c1ccc(NC(=O)C2CC3(CC(C(=O)O)C3)C2)nc1 (stereo not drawn) [Compound I-112, 6-((5-(2-(2-aminopyridin-3-yl)-5-phenyl-3H-imidazo[4,5-b]pyridin-3-yl)pyridin-2-yl)carbamoyl)spiro[3.3]heptane-2-carboxylic acid]
0.5 to 2	< 20	COC(=O)[C@H]1CC[C@H](C(=O)Nc2ccc(-n3c(-c4cccnc4N)nc4ccc(-c5ccccc5)nc43)cn2)CC1 [Compound I-113, methyl (1r,4r)-4-((5-(2-(2-aminopyridin-3-yl)-5-phenyl-3H-imidazo[4,5-b]pyridin-3-yl)pyridin-2-yl)carbamoyl)cyclohexane-1-carboxylate]
0.5 to 2	< 20	Nc1ncccc1-c1nc2ccc(-c3ccccc3)nc2n1-c1ccc(NC[C@H]2CC[C@@H](C(=O)O)CC2)nc1 [Compound I-114, (1s,4s)-4-(((5-(2-(2-aminopyridin-3-yl)-5-phenyl-3H-imidazo[4,5-b]pyridin-3-yl)pyridin-2-yl)amino)methyl)cyclohexane-1-carboxylic acid]
< 0.5	< 20	Nc1ncccc1-c1nc2ccc(-c3ccccc3)nc2n1-c1ccc(NC(=O)[C@H]2CC[C@H](C(N)=O)CC2)nc1 [Compound I-115, (1r,4r)-N-(5-(2-(2-aminopyridin-3-yl)-5-phenyl-3H-imidazo[4,5-b]pyridin-3-yl)pyridin-2-yl)cyclohexane-1,4-dicarboxamide]
0.5 to 2	< 20	Cn1nccc1-c1ccc2nc(-c3cccnc3N)n(-c3ccc(NC(=O)[C@H]4CC[C@H](C(=O)O)CC4)nc3)c2n1 [Compound I-116, (1r,4r)-4-((5-(2-(2-aminopyridin-3-yl)-5-(1-methyl-1H-pyrazol-5-yl)-3H-imidazo[4,5-b]pyridin-3-yl)pyridin-2-yl)carbamoyl)cyclohexane-1-carboxylic acid]
